The structures appear in SMILES notation.

One data set deals with prickly lettuce (LACSE). The data set is described as follows: Postemergence greenhouse trial, % visual injury on prickly lettuce. Format: in vivo, Lactuca serriola. The following applies: LACSE, CQC-m 0. The method, then:
(§1) Seeds of the desired test plant species were planted in Sun Gro MetroMix® 306 planting mixture, which typically has a pH of 6.0 to 6.8 and an organic matter content of about 30 percent, in plastic pots with a surface area of 103.2 square centimeters (cm^2). When required to ensure good germination and healthy plants, a fungicide treatment and/or other chemical or physical treatment was applied. The plants were grown for 7-36 days (d) in a greenhouse with an approximate 14-hour (h) photoperiod which was maintained at about 23° C. during the day and 22° C. during the night. Nutrients and water were added on a regular basis and supplemental lighting was provided with overhead metal halide 1000-Watt lamps as necessary. The plants were employed for testing when they reached the second or third true leaf stage.
(§2) Weighed amounts of technical material were dissolved in a volume of 97:3 volume per volume (v/v) acetone/dimethyl sulfoxide (DMSO) to stock solutions. […] The concentrated stock solutions were diluted with an aqueous mixture of 1.5% v/v of Agri-dex crop oil concentrate to provide the appropriate application rates. Compound requirements are based upon a 12 milliliter (mL) application volume at a rate of 187 liters per hectare (L/ha). Stocks solutions of the safeners were prepared following the same procedure. Spray solutions of the safeners and experimental compound mixtures were prepared by adding the stock solutions to the appropriate amount of dilution solution to form a 12 mL spray solution in two-way combinations. Formulated compounds were applied to the plant material with an overhead Mandel track sprayer equipped with 8002E nozzles calibrated to deliver 187 L/ha over an application area of 0.503 square meters (m^2) at a spray height of 18 inches (43 centimeters (cm)) above average plant canopy. Control plants were sprayed in the same manner with the solvent blank. All herbicide application (component a) rates are in g ae/ha and all safener (component b) rates are in g ai/ha.
(§3) The treated plants and control plants were placed in a greenhouse as described above and watered by sub-irrigation to prevent wash-off of the test compounds. After 20-22 d, the condition of the test plants as compared with that of the control plants was determined visually and scored on a scale of 0 to 100 percent where 0 corresponds to no injury and 100 corresponds to complete kill. Colby's equation was used to determine the herbicidal effects expected from the mixtures. […]

Another data set concerns winter rape (BRSNW). The data set is described as follows: Postemergence greenhouse trial, % visual injury on winter rape. To be noted: Brassica napus, post-emergence, BRSNW, CQC-m 0, read-out: % visual injury, Ob. The format is in vivo, Brassica napus. The method, then:
as §1, §2
(§4) The treated plants and control plants were placed in a greenhouse as described above and watered by sub-irrigation to prevent wash-off of the test compounds. After 20-22 d, the condition of the test plants as compared with that of the control plants was determined visually and scored on a scale of 0 to 100 percent where 0 corresponds to no injury and 100 corresponds to complete kill. The condition of the test plants was compared with that of the control plants as determined visually and scored on a scale of 0 to 100 percent, where 0 corresponds to no injury and 100 corresponds to complete kill. Colby's equation was used to determine the herbicidal effects expected from the mixtures.
(§5) The safener cloquintocet-mexyl was combined with compound 1, compound 2, compound 4, compound 5, and compound 6, and applied to corn/maize (ZEAMX) and spring wheat (TRZAS) and the phytotoxicity of the herbicidal compositions was measured. In addition, the efficacy of the herbicidal composition on velvetleaf (ABUTH, Abutilon theophrasti), pigweed (AMARE, Amaranthus retroflexus), winter rape (BRSNW, Brassica napus), lambsquarters (CHEAL, Chenopodium album), thistle (CIRAR, Cirsium arvense), nutsedge (CYPES, Cyperus esculentus), poinsettia (EPHHL, Euphorbia heterophylla), wild buckwheat (POLCO, Polygonum convolvulus), giant foxtail (SETFA, Setaria faberi), and chickweed (STEME, Stellaria media) was evaluated. […]

A further data set deals with spring barley (HORVS). The data set is described as follows: Postemergence greenhouse trial, % visual injury on spring barley. Format: in vivo, Hordeum vulgare. The following applies: HORVS. The protocol:
as §1, §2, §4
(§6) The safener cloquintocet-mexyl was combined with compound 1, compound 2, compound 3, compound 7, compound 8, compound 9, compound 10, compound 11, compound 12, compound 13, compound 14, compound 15, compound 16, compound 17, compound 18, compound 19, and compound 20, and applied to spring wheat (TRZAS), winter wheat (TRZAW), and spring barley (HORVS) and the phytotoxicity of the herbicidal compositions was measured. […]

A further data set deals with wild mustard (SINAR). Kind of data set: Postemergence greenhouse trial, % visual injury on wild mustard. Format: in vivo, Sinapis arvensis. The following applies: Brassica, post-emergence, SINAR, CQC-m 0, read-out: % visual injury, Ob. The protocol:
as §1, §2, §3

The next data set has as its system spring wheat (TRZAS). The data set is described as follows: Postemergence greenhouse trial, % visual injury on spring wheat. The format is in vivo, Triticum aestivum. To be noted: TRZAS. The protocol: as §1, §2, §4
The safener cloquintocet-mexyl was combined with compound 1, compound 2, compound 4, compound 5, and compound 6, and applied to corn/maize (ZEAMX) and spring wheat (TRZAS) and the phytotoxicity of the herbicidal compositions was measured. In addition, the efficacy of the herbicidal composition on velvetleaf (ABUTH, Abutilon theophrasti), pigweed (AMARE, Amaranthus retroflexus), winter rape (BRSNW, Brassica napus), lambsquarters (CHEAL, Chenopodium album), thistle (CIRAR, Cirsium arvense), nutsedge (CYPES, Cyperus esculentus), poinsettia (EPHHL, Euphorbia heterophylla), wild buckwheat (POLCO, Polygonum convolvulus), giant foxtail (SETFA, Setaria faberi), and chickweed (STEME, Stellaria media) was evaluated.
as §6

The subject of a further data set is kochia (KCHSC). Kind of data set: Postemergence greenhouse trial, % visual injury on kochia. The format is in vivo, Kochia scoparia. The following applies: Bassia scoparia, post-emergence, KCHSC, CQC-m 0, read-out: % visual injury, Ob. The protocol:
as §1, §2, §3

Data set [1] deals with bird's-eye speedwell (VERPE). Kind of data set: Postemergence greenhouse trial, % visual injury on bird's-eye speedwell. Format: in vivo, Veronica persica. To be noted: VERPE, CQC-m 0. The protocol: as §1, §2, §3
For the next data set, the system named is pigweed (AMARE). The data set is described as follows: Postemergence greenhouse trial, % visual injury on pigweed. The format is in vivo, Amaranthus retroflexus. The following applies: AMARE, CQC-m 0 g/ha. The method, then: as §1, §2, §4, §5
The safener cloquintocet-acid and a number of agriculturally acceptable esters and salts (-mexyl, -dimethylammonium salt and -triethylammonium salt) were combined in varying ratios with compound 1 and applied to spring wheat (TRZAS), winter wheat (TRZAW), and spring barley (HORVS), and the phytotoxicity of the herbicidal compositions was measured. […]

The subject of a further data set is cleavers (GALAP). The data set is described as follows: Postemergence greenhouse trial, % visual injury on cleavers. The following applies: CQC-m 0 g/ha. The format is in vivo, Galium aparine. The method, then:
as §1, §2, §4, §6

For the next data set, the system named is Russian thistle (SASKR). Kind of data set: Postemergence greenhouse trial, % visual injury on Russian thistle. Format: in vivo, Salsola kali. The following applies: SASKR, CQC-m 0 g/ha.
Setting [2] is: compound 4.380 g/ha, CQC-m 0 g/ha.
The mark [3] stands for this setting: compound 8.75 g/ha, CQC-m 0 g/ha.
Setting [4] is: compound 17.5 g/ha, CQC-m 0 g/ha.

With `COC(=O)c1nc(-c2ccc3cc[nH]c3c2F)c(F)c(/N=C/N(C)C)c1Cl` [compound 11], the “% visual injury, Ob” value in the data set on prickly lettuce (LACSE) (compound 17.5 g/ha) was 0%; with prickly lettuce (LACSE) (compound 35 g/ha), 10%; in the data set on prickly lettuce (LACSE) (compound 70 g/ha), 40%; in the data set on spring barley (HORVS) (compound 17.5 g/ha, CQC-m 0), 10%; with spring barley (HORVS) (compound 35 g/ha, CQC-m 0), 20%; in the data set on spring barley (HORVS) (compound 70 g/ha, CQC-m 0), 40%. Moreover, the “% visual injury, Ob” value in the data set with spring wheat (TRZAS) (compound 17.5 g/ha, CQC-m 0) amounted to 10%; with spring wheat (TRZAS) (compound 35 g/ha, CQC-m 0), 20%; with spring wheat (TRZAS) (compound 70 g/ha, CQC-m 0), 40%; in data set [1] (compound 17.5 g/ha), 85%; in data set [1] (compound 35 g/ha), 90%; in [1] (compound 70 g/ha) it was 95%. Moreover, in the data set on winter rape (BRSNW) (compound 17.5 g/ha), the plant injury at 17.5 g/ha was 95%. In addition, the plant injury at 35 g/ha in the data set on winter rape (BRSNW) (compound 35 g/ha) came out at 100%. For the same compound, in the data set with winter rape (BRSNW) (compound 70 g/ha), the plant injury at 70 g/ha was found to be 100%. Besides, the pest or weed control at 17.5 g/ha in the data set with wild mustard (SINAR) (compound 17.5 g/ha) was 95%; with kochia (KCHSC) (compound 17.5 g/ha) it was 70%. Further, the pest or weed control at 35 g/ha in the data set with wild mustard (SINAR) (compound 35 g/ha) came to 100%; with kochia (KCHSC) (compound 35 g/ha), 90%. Further, the pest or weed control at 70 g/ha in the data set with wild mustard (SINAR) (compound 70 g/ha) was found to be 100%; in the data set on kochia (KCHSC) (compound 70 g/ha), 90%.
As to `C=Cc1c(C(=O)OC)nc(-c2ccc3cc[nH]c3c2F)c(F)c1N` [compound 14], the “% visual injury, Ob” value was 0% in the data set with spring barley (HORVS) (setting [2]); 0% in the data set on spring barley (HORVS) (setting [3]); 10% in the data set with spring barley (HORVS) (setting [4]); 20% with spring barley (HORVS) (compound 35 g/ha, CQC-m 0 g/ha); 40% with spring barley (HORVS) (compound 70 g/ha, CQC-m 0 g/ha); 10% with pigweed (AMARE) (compound 4.380 g/ha). The “% visual injury, Ob” value in the data set with pigweed (AMARE) (compound 8.75 g/ha) is on record as 10%; with pigweed (AMARE) (compound 17.5 g/ha) it was 20%; with spring wheat (TRZAS) (setting [2]), 0%; in the data set on spring wheat (TRZAS) (setting [3]), 0%; with spring wheat (TRZAS) (setting [4]), 0%; in the data set on spring wheat (TRZAS) (compound 35 g/ha, CQC-m 0 g/ha) it was 10%. Moreover, the “% visual injury, Ob” value in the data set with spring wheat (TRZAS) (compound 70 g/ha, CQC-m 0 g/ha) worked out at 30%; with cleavers (GALAP) (compound 4.380 g/ha) it was 10%; with cleavers (GALAP) (compound 8.75 g/ha) it was 10%; in the data set with cleavers (GALAP) (compound 17.5 g/ha), 20%; with cleavers (GALAP) (compound 35 g/ha), 30%; with cleavers (GALAP) (compound 70 g/ha), 60%. Besides, the “% visual injury, Ob” value with Russian thistle (SASKR) (compound 4.380 g/ha) is 0%; with Russian thistle (SASKR) (compound 8.75 g/ha) it was 10%; with Russian thistle (SASKR) (compound 17.5 g/ha), 50%; with Russian thistle (SASKR) (compound 35 g/ha), 60%; in the data set on Russian thistle (SASKR) (compound 70 g/ha) it was 70%.

For the origin of these results see patent US9763445B2, “Safened herbicidal compositions comprising a pyridine carboxylic acid herbicide” (Dow AgroSciences, LLC, priority 2014, dated 2017).
